As usually defined, the pIC50 is the negative decadic logarithm of the IC50, by convention in mol/L. Low values mean a large IC50, high ones a small IC50.

pIC50: −log10 of the molar value.

From ChEMBL document CHEMBL1147267, “New strongylophorines from the Okinawan marine sponge Petrosia (Strongylophora) corticata” (J Nat Prod, 2003) come the findings set out here.

The experiment relates to HeLa. In words: Cytotoxicity against human HeLa cells. It counts as functional, cell-based.
Take `C[C@]12CCC[C@](C)(C=O)[C@@H]1CC[C@]1(C)[C@@H]2CC[C@]2(C)Oc3ccc(O)cc3C[C@@H]12` [Strongylophorin-4]: the pIC50 was 4.30.

For the compound `CC1(C)CCC[C@@]2(C=O)[C@H]1CC[C@]1(C)[C@@H]2CC[C@]2(C)Oc3ccc(O)cc3C[C@@H]12` [Strongylophorine-24], the pIC50 was less than 4.00. For `COc1ccc2c(c1)C[C@H]1[C@]3(C)CC[C@@H]4[C@](C)(CCC[C@]4(C)C(=O)O)[C@H]3CC[C@]1(C)O2` [Strongylophorine-1], the negative logarithm of the IC50 (pIC50) was 4.31. To `C[C@]12CCC[C@](C)(C(=O)O)[C@@H]1CC[C@]1(C)[C@@H]2CC[C@]2(C)Oc3ccc(O)cc3C[C@@H]12` [Strongylophorin-3] belongs 4.34; to `CC1(C)CCC[C@@]2(CO)[C@H]1CC[C@]1(C)[C@@H]2CC[C@]2(C)Oc3ccc(O)cc3C[C@@H]12` [Strongylophorin-23], 4.21. Compound `CC1(C)CCC[C@]2(C)[C@H]3CC[C@]4(C)Oc5ccc(O)cc5C[C@H]4[C@]3(C)CC[C@@H]12` [Strongylophorin-22] had a pIC50 of 4.58.

The compound `C[C@@]12CC[C@@H]3[C@]4(CCC[C@]3(C)C(=O)OC4)[C@H]1CC[C@]1(C)Oc3ccc(O)cc3C[C@@H]21` [STRONGYLOPHORIN 2] gave a negative-log IC50 (pIC50) of less than 4.00.
